Data: ChEMBL document CHEMBL6182945, “MMAE-Based Peptide-Drug Conjugates Targeting GPC3 for Precision Chemoradiotherapy in Hepatocellular Carcinoma” (J Med Chem, 2025)
The source made the active and inactive calls. The rule behind the calls is not given here.

How the values were obtained:
Huh-7 [1] = assay: Induction of immunogenic cell death (ICD) in human Huh-7 cells assessed as translocation of HMGB1 from nucleus to cytoplasm at 100 nM measured after 24 hrs by immunofluorescence assay; type: functional, cell-based
Huh-7 [2] = assay: In vivo antitumor activity against human Huh-7 cells xenografted in female BALB/c mouse assessed as reduction in tumor volume at 2 mg/kg, iv total 4 doses measured on day 17 relative to control; type: functional; design: scale not given: the % may be the effect or the level left; details: time 17 day
Huh-7 [3] = assay: Decrease in CDK1 expression in human irradiated Huh-7 cells at 100 nM measured after 24 hrs by Western blot analysis relative to irradiation alone; type: functional, cell-based
Huh-7 [4] = assay: Cell cycle arrest in human Huh-7 cells assessed as accumulation of cells at phase G2/M at 50 nM measured after 24 hrs incubation by PI staining based flow cytometry (reference value: 18.42%); type: functional
Hep 3B2 [5] = assay: Cell cycle arrest in human Hep3B cells assessed as accumulation of cells at G2/M phase at 10 nM measured after 24 hrs incubation by PI staining based flow cytometry (reference value: 23%); type: functional
Huh-7 [6] = assay: In vivo apoptotic activity against human Huh-7 cells xenografted in female BALB/c mouse assessed as tumor apoptosis at 2 mg/kg, iv total 4 doses measured on day 17 relative to control by TUNEL assay; type: functional, organism-based; details: time 17.0 day
Huh-7 [7] = assay: Cell cycle arrest in human Huh-7 cells assessed as accumulation of cells at G2/M phase at 10 nM measured after 24 hrs incubation by PI staining based flow cytometry (reference value: 18.88%); type: functional
Huh-7 [8] = assay: Cell cycle arrest in human Huh-7 cells assessed as accumulation of cells at S phase at 30 nM measured after 24 hrs incubation by PI staining based flow cytometry (reference value: 33.15%); type: functional
Huh-7 [9] = assay: Cell cycle arrest in human Huh-7 cells assessed as accumulation of cells at G2/M phase at 30 nM measured after 24 hrs incubation by PI staining based flow cytometry (reference value: 18.88%); type: functional
Huh-7 [10] = assay: Cell cycle arrest in human Huh-7 cells assessed as accumulation of cells at S phase at 50 nM measured after 24 hrs incubation by PI staining based flow cytometry (reference value: 37.30%); type: functional
LX-2 [11] = assay: Cell cycle arrest in human LX-2 cells assessed as accumulation of cells at G0/G1 phase at 10 nM measured after 24 hrs incubation by PI staining based flow cytometry (reference value: 48.42%); type: functional
LX-2 [12] = assay: Cell cycle arrest in human LX-2 cells assessed as accumulation of cells at G0/G1 phase at 30 nM measured after 24 hrs incubation by PI staining based flow cytometry (reference value: 48.42%); type: functional
Hep 3B2 [13] = assay: Cell cycle arrest in human Hep3B cells assessed as accumulation of cells at S phase at 10 nM measured after 24 hrs incubation by PI staining based flow cytometry (reference value: 28.91%); type: functional
LX-2 [14] = assay: Cell cycle arrest in human LX-2 cells assessed as accumulation of cells at G2/M phase at 100 nM measured after 24 hrs incubation by PI staining based flow cytometry (reference value: 14.65%); type: functional
Huh-7 [15] = assay: Cell cycle arrest in human Huh-7 cells assessed as accumulation of cells at G0/G1 phase at 50 nM measured after 30 hrs incubation by PI staining based flow cytometry (reference value: 44.20%); type: functional
Huh-7 [16] = assay: Decrease in CDC25C expression in human irradiated Huh-7 cells at 100 nM measured after 24 hrs by Western blot analysis; type: functional, cell-based
Huh-7 [17] = assay: Cell cycle arrest in human Huh-7 cells assessed as accumulation of cells at S phase at 50 nM measured after 30 hrs incubation by PI staining based flow cytometry (reference value: 37.30%); type: functional
Huh-7 [18] = assay: Induction of radiation induced gamma-H2AX phosphorylation in human irradiated Huh-7 cells at 100 nM measured after 24 hrs by Western blot analysis; type: functional, cell-based
LX-2 [19] = assay: Cell cycle arrest in human LX-2 cells assessed as accumulation of cells at G0/G1 phase at 100 nM measured after 24 hrs incubation by PI staining based flow cytometry (reference value: 48.42%); type: functional
Huh-7 [20] = assay: Cell cycle arrest in human Huh-7 cells assessed as accumulation of cells at G2/M phase at 100 nM measured after 24 hrs incubation by PI staining based flow cytometry (reference value: 18.88%); type: functional
Huh-7 [21] = assay: Cell cycle arrest in human Huh-7 cells assessed as accumulation of cells at S phase at 10 nM measured after 24 hrs incubation by PI staining based flow cytometry (reference value: 33.15%); type: functional
Hep 3B2 [22] = assay: Cell cycle arrest in human Hep3B cells assessed as accumulation of cells at G2/M phase at 30 nM measured after 24 hrs incubation by PI staining based flow cytometry (reference value: 23%); type: functional
LX-2 [23] = assay: Cell cycle arrest in human LX-2 cells assessed as accumulation of cells at S phase at 100 nM measured after 24 hrs incubation by PI staining based flow cytometry (reference value: 36.93%); type: functional
[24] = biological target: Serine/threonine-protein kinase Chk2 (Homo sapiens) (UniProt O96017); assay: Induction of CHK2 phosphorylation in human irradiated Huh-7 cells at 100 nM measured after 24 hrs by Western blot analysis; type: cell-based
Huh-7 [25] = assay: Cell cycle arrest in human Huh-7 cells assessed as accumulation of cells at phase G2/M at 50 nM measured after 30 hrs incubation by PI staining based flow cytometry (reference value: 18.42%); type: functional
Huh-7 [26] = assay: In vivo antitumor activity against human Huh-7 cells xenografted in female BALB/c mouse assessed as gamma-H2AX positive cells at 1 mg/kg, iv followed by irradiated with 2 Gy for 2 consecutive days, once a week for 3 weeks measured on day 22; type: functional, organism-based; details: time 22.0 day
Huh-7 [27] = assay: Cell cycle arrest in human Huh-7 cells assessed as accumulation of cells at phase G2/M at 50 nM measured after 18 hrs incubation by PI staining based flow cytometry (reference value: 18.42%); type: functional
LX-2 [28] = assay: Cell cycle arrest in human LX-2 cells assessed as accumulation of cells at S phase at 30 nM measured after 24 hrs incubation by PI staining based flow cytometry (reference value: 36.93%); type: functional
Hep 3B2 [29] = assay: Cell cycle arrest in human Hep3B cells assessed as accumulation of cells at G0/G1 phase at 30 nM measured after 24 hrs incubation by PI staining based flow cytometry (reference value: 48%); type: functional
Huh-7 [30] = assay: In vivo antitumor activity against human Huh-7 cells xenografted in female BALB/c mouse assessed as reduction in tumor volume at 1 mg/kg, iv total 4 doses measured on day 17 relative to control; type: functional; design: scale not given: the % may be the effect or the level left; details: time 17 day
Huh-7 [31] = assay: Induction of immunogenic cell death (ICD) in human Huh-7 cells assessed as externalization of calreticulin (CALR) on the cell membrane at 100 nM measured after 24 hrs by immunofluorescence assay; type: functional, cell-based
Huh-7 [32] = assay: Induction of DNA damage in human irradiated Huh-7 cells assessed as increase in DNA double break by measuring gamma-H2AX foci formation at 100 nM measured after 24 hrs by immunostaining assay relative to compound alone/irradiation alone; type: functional, cell-based
Hep 3B2 [33] = assay: Cell cycle arrest in human Hep3B cells assessed as accumulation of cells at S phase at 30 nM measured after 24 hrs incubation by PI staining based flow cytometry (reference value: 28.91%); type: functional

Chain of Serine/threonine-protein kinase Chk2 (Homo sapiens) (O96017 whole entry): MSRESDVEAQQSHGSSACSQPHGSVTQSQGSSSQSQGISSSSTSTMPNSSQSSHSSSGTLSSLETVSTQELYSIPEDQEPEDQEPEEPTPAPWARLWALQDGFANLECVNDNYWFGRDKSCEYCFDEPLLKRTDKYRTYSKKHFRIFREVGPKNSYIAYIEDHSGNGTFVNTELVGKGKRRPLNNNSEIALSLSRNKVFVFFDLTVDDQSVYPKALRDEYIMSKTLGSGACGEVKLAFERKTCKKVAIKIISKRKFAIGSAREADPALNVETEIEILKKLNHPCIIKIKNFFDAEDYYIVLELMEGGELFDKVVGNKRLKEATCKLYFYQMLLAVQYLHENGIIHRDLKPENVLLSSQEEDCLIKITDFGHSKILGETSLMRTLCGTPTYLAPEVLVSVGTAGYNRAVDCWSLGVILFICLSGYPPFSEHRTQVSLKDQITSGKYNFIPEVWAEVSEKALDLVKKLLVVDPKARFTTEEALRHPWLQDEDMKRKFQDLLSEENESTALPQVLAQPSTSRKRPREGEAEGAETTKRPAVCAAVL

SMILES: CC[C@H](C)[C@@H]([C@@H](CC(=O)N1CCC[C@H]1[C@H](OC)[C@@H](C)C(=O)N[C@H](C)[C@@H](O)c1ccccc1)OC)N(C)C(=O)[C@@H](NC(=O)[C@H](C(C)C)N(C)C(=O)OCc1ccc(NC(=O)[C@H](CCCNC(N)=O)NC(=O)[C@@H](NC(=O)CCCCCN2C(=O)CC(SC[C@H](N)C(=O)N[C@@H](CO)C(=O)N[C@@H](CC(N)=O)C(=O)N[C@@H](CC(=O)O)C(=O)N[C@@H](CCCNC(=N)N)C(=O)N3CCC[C@@H]3C(=O)N3CCC[C@@H]3C(=O)N[C@@H](CC(N)=O)C(=O)N[C@H](C(=O)N[C@@H](CC(C)C)C(=O)N[C@@H](CCC(N)=O)C(=O)N[C@@H](CCCCN)C(=O)N[C@@H](CCCNC(=N)N)C(N)=O)[C@@H](C)CC)C2=O)C(C)C)cc1)C(C)C (stereo partly drawn)
- Activity (Huh-7 [1]): Active
- Activity (Huh-7 [2]): 66%
- Activity (Huh-7 [3]): Active
- Activity (Huh-7 [4]): 56.79%
- Activity (Hep 3B2 [5]): 39.22%
- Activity (Huh-7 [6]): Active
- Activity (Huh-7 [7]): 35.65%
- Activity (Huh-7 [8]): 13.76%
- Activity (Huh-7 [9]): 49.02%
- Activity (Huh-7 [10]): 14.94%
- Activity (LX-2 [11]): 48.82%
- Activity (LX-2 [12]): 46.22%
- Activity (Hep 3B2 [13]): 19.52%
- Activity (LX-2 [14]): 23.65%
- Activity (Huh-7 [15]): 31.74%
- Activity (Huh-7 [16]): Active
- Activity (Huh-7 [17]): 13.43%
- Activity (Huh-7 [18]): Active
- Activity (LX-2 [19]): 39.1%
- Activity (Huh-7 [20]): 76.34%
- Activity (Huh-7 [21]): 13.8%
- Activity (Hep 3B2 [22]): 45.12%
- Activity (LX-2 [23]): 37.25%
- Activity [24]: Active
- Activity (Huh-7 [25]): 54.83%
- Activity (Huh-7 [26]): Active
- Activity (Huh-7 [27]): 44.55%
- Activity (LX-2 [28]): 38.52%
- Activity (Hep 3B2 [29]): 28.5%
- Activity (Huh-7 [30]): 40%
- Activity (Huh-7 [31]): Active
- Activity (Huh-7 [32]): Active
- Activity (Hep 3B2 [33]): 26.35%
